Measured values reported in patent US20060223857A1, “Combination of a serotonin reuptake inhibitor and a glycine transporter type 1 inhibitor for the treatment of depression” (priority 2003, published 2006).

Tested on: serotonin levels in rat ventral hippocampus
Test: Microdialysis of serotonin levels in ventral hippocampus
Assay type: in vivo
Experimental: Male albino rats of a Wistar-derived strain (285-320 g; Harlan, Zeist, The Netherlands) were used for the experiments. Upon surgery, rats were housed individually in plastic cages (35×35×40 cm), and had free access to food and water. Animals were kept on a 12 h light schedule (light on 7:00 a.m.). The experiments are concordant with the declarations of Helsinki and were approved by the animal care committee of the faculty of mathematics and natural science of the University of Groningen.
The following drugs were used: Citalopram hydrobromide and NFPS having the structure: [drawing 3] (LU 2736N) (Lundbeck A/S, Copenhagen, Denmark). Drugs were dissolved in saline and administered s.c. Surgery […]
Twenty-μl microdialysate samples were injected via an autoinjector (CMA/200 refrigerated microsampler, CMA, Sweden) onto a 100×2.0 mm C18 Hypersil 3 μm column (Bester, Amstelveen, the Netherlands) and separated with a mobile phase consisting of 5 g/L di-ammoniumsulfate, 500 mg/L EDTA, 50 mg/L heptane sulphonic acid, 4% methanol v/v, and 30 μl/L of triethylamine, pH 4.65 at a flow of 0.4 ml/min (Shimadzu LC-10 AD). 5-HT was detected amperometrically at a glassy carbon electrode at 500 mV vs Ag/AgCl (Antec Leyden, Leiden, The Netherlands). […]

For `CN(CCC(Oc1ccc(-c2ccccc2)cc1)c1ccc(F)cc1)CC(=O)O` (centres unmarked) [NFPS], the “augmentation of the effect of citalopram on hippocampal serotonin levels” value (NFPS 10 μmol/kg s.c. co-administered with citalopram 10 μmol/kg s.c., Treatment P=0.044, Treatment vs. Time P=0.033) was “significantly augmented the effect of citalopram” and the “effect on serotonin levels in rat ventral hippocampus” value (NFPS alone, 10 μmol/kg s.c., microdialysis, Wistar rats) was “did not induce any significant effects”.
